These compounds were tested against 5-hydroxytryptamine receptor 6 (Homo sapiens, UniProt P50406) (assay: Displacement of [3H]LSD from human 5HT6 receptor expressed in HEK293 cells).
Sequence of 5-hydroxytryptamine receptor 6 (P50406 whole entry): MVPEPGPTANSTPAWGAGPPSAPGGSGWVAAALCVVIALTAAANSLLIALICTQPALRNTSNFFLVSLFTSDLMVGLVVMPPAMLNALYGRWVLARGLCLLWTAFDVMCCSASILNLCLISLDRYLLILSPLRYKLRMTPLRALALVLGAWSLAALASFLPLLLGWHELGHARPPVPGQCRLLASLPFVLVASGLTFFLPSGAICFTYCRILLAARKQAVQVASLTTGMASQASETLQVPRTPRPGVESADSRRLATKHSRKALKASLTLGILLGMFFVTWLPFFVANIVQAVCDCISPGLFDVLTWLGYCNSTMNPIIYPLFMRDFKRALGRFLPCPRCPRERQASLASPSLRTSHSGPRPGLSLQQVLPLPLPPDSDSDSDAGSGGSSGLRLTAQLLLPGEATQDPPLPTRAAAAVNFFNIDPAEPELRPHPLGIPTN
Format: cell-based
CN(C)CCc1cn2c3c(cccc13)-c1ccccc1S2(=O)=O was tested, and the Ki was 4500 nM. For CCN(CC)CCc1cn(S(=O)(=O)c2ccccc2)c2ccccc12, the Ki was 14 nM. COc1ccc2[nH]cc(CCN(C)Cc3ccccc3)c2c1 showed a Ki of 106 nM. Work on COc1ccc2c(CCN(C)C)cn(S(=O)(=O)c3ccccc3)c2c1 yielded a Ki of 15 nM. For CCN(CC)CCc1c[nH]c2ccccc12, the Ki was 575 nM. COc1cccc2c1c(CCN(C)C)cn2S(=O)(=O)c1ccccc1 showed a Ki of 11 nM. CN(C)CCc1c2n(c3ccccc13)S(=O)(=O)c1ccccc1-2 gave a Ki of 143 nM.
